From patent US11542492B2 (Celgene CAR LLC, priority 2009, dated 2023)

Legend:
HCT116 = experiment: HCT116-WB assay; type: cell-based; settings: Homo sapiens, HCT-116; read-out: HCT116-WB Inhibition Designation
PI3Kβ = PI3Kβ (Homo sapiens, UniProt P42338); experiment: MALDI MS of intact PI3Kβ incubated with compound; type: binding; settings: 3 hr, 10× fold excess of compound to protein
Procedure: Intact PI3Kβ was incubated for 3 hr at a 10× fold access of compound to protein. 5 μL aliquots of the samples were diluted with 15 μL of 0.1% TFA prior to micro C4 ZipTipping directly onto the MALDI target using Sinapinic acid as the desorption matrix (10 mg/mL in 0.1% TFA:Acetonitrile 50:50). Spots were then analyzed via MALDI-MS. XXII-10 modified PI3Kβ 100% by 3h. XXII-8, XXII-6, XXIII-4, and XXIII-3 each provided between about 35% to about 55% modification.

HCV NS3 protease WT 1b = target: T1, HCV NS3 protease WT 1b (Hepatitis C virus genotype 1b, UniProt P26663); experiment: MALDI MS of intact HCV protease 1b WT incubated with compound; type: binding
T1 construct: The single-chain proteolytic domain (NS4A21-32-GSGS-NS33-631) was cloned into pET-14b; His tag (own knowledge of vector pET-14b); made in house; host or cells: Escherichia coli BL21

[1] = target: T2, HCV C159S/K136A double mutant (Hepatitis C virus genotype 1b, UniProt P26663, C1185S/K1162A); experiment: MALDI MS of intact HCV protease C159S/K136A double mutant; type: binding; settings: 1 hr, 10× fold excess
T2 construct: The single-chain proteolytic domain (NS4A21-32-GSGS-NS33-631) was cloned into pET-14b; His tag (own knowledge of vector pET-14b); made in house; host or cells: Escherichia coli BL21
Procedure: (§1) Intact HCV (protease) 1bWT, C159S, and C159S/K136A were incubated for 1 hr at a 10× fold excess of XVI-26 to protein. 3 μl aliquots of the samples were diluted with 10 μl of 0.1% TFA prior to micro C4 ZipTipping directly onto the MALDI target using Sinapinic acid as the desorption matrix (10 mg/mL in 0.1% TFA:Acetonitrile 50:50).

[2] = system: NS3/4A self-cleavage activity in Huh-7 cells; experiment: Prolonged duration of action (washout), NS3 self-cleavage in transfected Huh-7 cells; type: cell-based; settings: FIG. 11
Procedure: Parental Huh-7 cells were plated at a density of 1.75×10^6 cells per 100 mm dish in media with 10% FBS. The following day, cells were transfected in OptiMEM using 28 ug of plasmid and 112 ul of Lipfectamine 2000 (Invitrogen), according to manufacturer's instructions. After 4 hours incubation with the transfection complex, the media was changed to Replicon Assay Medium (RPMI supplemented with 5% FBS, 1× non-essential amino acids and pen/strep). The next morning, the cells were trypsinized, counted and replated in Replicon Media at a density of 20,000 cells/well of a 12 well plate (4 wells per genotype). Cells were allowed to adhere to the plate, then the media was removed and replaced with 1 ml media containing XVI-26, (3 wells per compound) and 0.02% DMSO and returned to the incubator overnight. Sixteen hours later 1 treated well from each genotype (0 hr sample) and 1 untreated well were washed with PBS, then lysed and scraped into 30 ul of Cell Extraction Buffer (Biosource, Camarillo, Calif.) plus Complete Protease Inhibitor (Roche, Indianapolis, Ind.). The remaining wells were rinsed 2× with PBS then fed with Replicon Media and returned to the incubator. […] Lysates were resolved using standard immunoblotting methods and NS3 self-cleavage activity was assessed and quantified relative to untreated samples.

[3] = target: T3, HCV protease C159S mutant (Hepatitis C virus genotype 1b, UniProt P26663, C1185S); experiment: MALDI MS of intact HCV protease C159S incubated with compound; type: binding; settings: 1 hr, 10× fold excess
T3 construct: The single-chain proteolytic domain (NS4A21-32-GSGS-NS33-631) was cloned into pET-14b; His tag (own knowledge of vector pET-14b); made in house; host or cells: Escherichia coli BL21
Procedure: as §1

[4] = target: T4, HCV NS3/4A 1b protease enzyme (wild type) (Hepatitis C virus genotype 1b, UniProt P26663); experiment: HCV protease FRET assay (IC50_APP), wild type NS3/4A 1b; type: biochemical
T4 construct: 10× stocks of NS3/4A protease enzyme from Bioenza (Mountain View, Calif.); purchased Bioenza
In short: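 Wild-type NS3/4A 1b protease with serially diluted compounds (from 50% DMSO stocks); reaction started at once with FRET substrate and followed 60-90 min at ex485/em520. Initial velocities (0 to 15+ min) normalised to no-inhibitor and no-enzyme controls; apparent IC50 from variable-slope log[inhibitor]-response fit.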

PI3Kβ, sequence (P42338 whole entry): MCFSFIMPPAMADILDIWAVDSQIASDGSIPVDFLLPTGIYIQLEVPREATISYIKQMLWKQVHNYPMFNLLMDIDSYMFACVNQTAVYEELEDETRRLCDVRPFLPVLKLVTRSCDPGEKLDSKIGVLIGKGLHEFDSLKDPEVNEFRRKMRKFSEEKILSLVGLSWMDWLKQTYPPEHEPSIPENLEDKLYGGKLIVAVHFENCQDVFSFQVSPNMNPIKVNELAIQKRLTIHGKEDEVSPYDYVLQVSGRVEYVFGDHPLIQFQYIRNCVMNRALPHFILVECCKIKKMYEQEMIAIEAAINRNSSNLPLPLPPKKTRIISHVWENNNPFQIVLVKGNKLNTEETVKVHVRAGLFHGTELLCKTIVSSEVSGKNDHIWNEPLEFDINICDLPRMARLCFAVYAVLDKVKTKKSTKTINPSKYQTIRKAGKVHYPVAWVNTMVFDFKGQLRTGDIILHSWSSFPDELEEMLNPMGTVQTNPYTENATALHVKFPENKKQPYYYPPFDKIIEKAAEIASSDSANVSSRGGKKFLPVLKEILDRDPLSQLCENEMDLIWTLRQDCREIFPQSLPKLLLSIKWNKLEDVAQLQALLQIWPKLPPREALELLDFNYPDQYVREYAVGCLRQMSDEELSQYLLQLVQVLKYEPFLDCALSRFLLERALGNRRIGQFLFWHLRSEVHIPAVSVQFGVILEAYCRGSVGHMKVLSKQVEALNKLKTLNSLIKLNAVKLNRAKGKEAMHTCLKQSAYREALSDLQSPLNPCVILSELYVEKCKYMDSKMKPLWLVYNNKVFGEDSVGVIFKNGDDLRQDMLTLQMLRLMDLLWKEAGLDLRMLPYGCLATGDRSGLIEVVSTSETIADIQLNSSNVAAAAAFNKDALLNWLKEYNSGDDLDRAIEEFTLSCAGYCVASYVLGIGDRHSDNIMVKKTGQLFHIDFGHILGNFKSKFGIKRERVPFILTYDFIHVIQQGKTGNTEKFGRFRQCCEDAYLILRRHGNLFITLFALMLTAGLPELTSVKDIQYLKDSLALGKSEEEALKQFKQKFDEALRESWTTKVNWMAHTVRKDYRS
PI3Kβ, sequence (P27986 whole entry partner): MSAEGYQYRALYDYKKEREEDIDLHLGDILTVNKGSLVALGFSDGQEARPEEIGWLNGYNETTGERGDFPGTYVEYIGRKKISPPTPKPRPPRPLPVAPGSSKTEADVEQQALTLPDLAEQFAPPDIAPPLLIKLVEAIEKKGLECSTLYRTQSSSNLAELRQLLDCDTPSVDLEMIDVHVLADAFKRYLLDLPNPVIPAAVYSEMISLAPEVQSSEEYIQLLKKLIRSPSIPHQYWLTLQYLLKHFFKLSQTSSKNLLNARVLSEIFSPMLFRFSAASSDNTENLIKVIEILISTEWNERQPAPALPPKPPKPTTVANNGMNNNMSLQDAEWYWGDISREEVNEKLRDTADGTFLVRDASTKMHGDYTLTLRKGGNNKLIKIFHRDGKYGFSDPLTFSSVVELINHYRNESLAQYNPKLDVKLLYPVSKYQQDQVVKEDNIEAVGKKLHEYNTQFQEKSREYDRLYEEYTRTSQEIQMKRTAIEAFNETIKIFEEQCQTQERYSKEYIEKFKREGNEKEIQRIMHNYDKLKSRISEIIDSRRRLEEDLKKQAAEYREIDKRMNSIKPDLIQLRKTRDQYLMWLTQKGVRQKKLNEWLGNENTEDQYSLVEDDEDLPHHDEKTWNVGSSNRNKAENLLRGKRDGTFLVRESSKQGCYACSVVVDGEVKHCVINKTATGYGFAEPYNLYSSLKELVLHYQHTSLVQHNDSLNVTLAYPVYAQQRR

Row | IC50 (HCT116) | modification of PI3Kβ (PI3Kβ) | SMILES | stability of adduct at raised pH (HCV NS3 protease WT 1b; 1 hour at pH 7.4 followed by 2 hours at pH 10) | MS_HCVNS3_INTACT_NS3 WT 1b 1 HR (HCV NS3 protease WT 1b; WT 1b, 1 HR) | modification of HCV C159S/K136A [1] | duration of action after washout [2] | positive mass shift of HCV C159S [3] | IC50 [4]
1 | 100 to 1000 nM | 100% | C=CS(=O)(=O)N(C)Cc1cc2nc(-c3cccc(O)c3)nc(N3CCOCC3)c2s1 [XXII-10] |  |  |  |  |  | 
2 |  |  | C=C[C@@H]1C[C@]1(NC(=O)[C@@H]1CC(Oc2cc(-c3ccccc3)nc3cc(OC)ccc23)CN1C(=O)[C@H](CCC(=O)N1CCC1=O)NC(=O)OC(C)(C)C)C(=O)NS(=O)(=O)C1CC1 (some centres unmarked) [XVI-26] | did not come off of the protein | H (>50% and ≤70% modification) | no modification | prolonged duration of action | 770 Da | < 1 nM
